The record followed here is patent US8865672B2, “Prevention of tissue ischemia and related methods” (The United States of America, as represented by the …, priority 2006, dated 2014).

For experiment [1], the system named is vascular cell outgrowth from muscle explants. Nature of the experiment: Explant invasion assay in 3D collagen. In kind it is cell-based, mouse. The settings on record: TSP1 1 μg/ml. On the procedure:
Muscle biopsies from the pectoralis major muscle of 8 to 12 week old wild type or transgenic mice were harvested and explanted into 100 μl of type I collagen gel in 96-well tissue culture plates as described (Isenberg et al., Matrix Biol 24:110-123, 2005). Following gelation, the embedded explants were overlayed with 75 μl of EGM+2% FCS in the presence or absence of a dose range of DETA/NO (0.01-1000 μM) and other indicated treatments and then incubated at 37° C. and 5% CO2 for 7 days, at which time maximum vascular cell migration through the matrix was measured.

The test system of experiment [2] is murine ASMC (WT, CD36 null, CD47 null). Nature of the experiment: Intracellular cGMP in murine ASMC. In kind it is cell-based, mouse. A digest of the protocol: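 Aortic smooth muscle cells from wild-type C57Bl/6, CD36-null or CD47-null mice, passage 1–4, plated overnight in full growth medium. Weaned to SM-GM + 0.1% BSA before treatment with NO donor and other agents. Intracellular cGMP measured by enzyme immunoassay.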

A further experiment concerns Rap1. Nature of the experiment: Rap1 pulldown assay in platelets. It counts as cell-based, human. The settings on record: thrombin. On the procedure:
Platelets were diluted to 5×10^8 platelets/mL in Tyrode's buffer and treated with various reagents for the indicated times. Immediately following treatment, platelets were pelleted at 13,000 g for 30 seconds at 4° C. and resuspended in ice-cold lysis buffer containing 20 mM HEPES (pH 7.5), 100 mM NaCl, 10 mM EGTA, 20 mM MgCl2, 8 mM α-glycerophosphate, 1% Triton X-100, 1 mM phenylmethylsulfonylfluoride, 40 mM NaF, 1 mM Na3VO4, 10 μg/mL aprotinin, and 10 μg/mL leupeptin. Lysates were centrifuged at 13,000 g for 5 minutes at 4° C. and the supernatants were incubated for 15 minutes on a tumbler at 4° C. with glutathione Sepharose 4B beads (Amersham) prebound with a GST-Ral GDS RBD fusion protein (kind gift of J. Silvio Gutkind, NIH, Bethesda, Md.). Bead complexes were washed by centrifugation at 6,000 g for 30 seconds at 4° C. followed by resuspension in 0.5 mL lysis buffer; 2 washes were performed for each sample. After the second wash, beads were resuspended in an equal volume of 2×SDS sample buffer and stored at −20° C. For Western analysis, bead-bound proteins in sample buffer were boiled for 10 minutes and subjected to electrophoresis on NuPAGE 10% Bis-Tris gels (Invitrogen, Carlsbad, Calif.), transferred to Immobilon-P PVDF membranes (Millipore, Billerica, Mass.), and blotted with rabbit polyclonal anti-Rapt (sc-65; Santa Cruz Biotechnology, Santa Cruz, Calif.).

The target of another experiment is T1, cGK-I (Homo sapiens, UniProt Q13976).
T1 construct: endogenous in cells; host or cells: washed human platelets, treated intact, then lysed
T1 sequence (Q13976 1-686 isoform Q13976-2): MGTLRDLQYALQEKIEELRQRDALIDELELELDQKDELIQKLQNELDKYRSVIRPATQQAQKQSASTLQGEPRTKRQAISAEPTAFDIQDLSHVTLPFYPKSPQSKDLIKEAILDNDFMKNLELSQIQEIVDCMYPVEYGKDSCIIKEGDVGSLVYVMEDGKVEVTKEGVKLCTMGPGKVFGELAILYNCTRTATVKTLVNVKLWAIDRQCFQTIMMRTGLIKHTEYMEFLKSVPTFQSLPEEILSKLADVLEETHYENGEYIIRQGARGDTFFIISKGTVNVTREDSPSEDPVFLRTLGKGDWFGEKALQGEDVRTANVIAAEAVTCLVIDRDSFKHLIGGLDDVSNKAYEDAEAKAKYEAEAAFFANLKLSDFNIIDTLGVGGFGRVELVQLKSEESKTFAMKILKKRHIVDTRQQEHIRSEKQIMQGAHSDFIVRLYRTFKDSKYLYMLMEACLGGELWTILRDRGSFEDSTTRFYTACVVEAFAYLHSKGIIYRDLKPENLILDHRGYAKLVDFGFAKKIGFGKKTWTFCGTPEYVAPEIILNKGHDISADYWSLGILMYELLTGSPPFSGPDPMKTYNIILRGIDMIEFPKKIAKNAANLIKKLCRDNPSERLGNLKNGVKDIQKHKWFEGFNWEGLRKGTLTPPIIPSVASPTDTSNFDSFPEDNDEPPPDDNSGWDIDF
Put plainly: cGK in vitro kinase assay of platelet lysates. In kind it is biochemical. On the procedure:
Platelets were washed as described above and resuspended in Tyrode's buffer (3×10^8 platelets/mL). Platelets were preincubated with TSP1 (2.2 nM) or Rp-8-pCPT-cGMP for 15 minutes prior to treatment with 8-Br-cGMP (100 μM) or NO (DEA/NO 10 μM) for 2 minutes. Treatment was stopped by placing the platelets on ice. Immediately following treatment, platelets were pelleted by centrifugation at 13,000×g at 4° C. for 15 seconds and resuspended in a lysis buffer containing 10 mM HEPES (pH 7.4), 1 mM EDTA, 1 mM 3-Isobutyl-1-methylxanthine, 125 mM KCl, 1 mM phenylmethysulfonylfluoride, 1 μg/ml aprotinin, and 1 μg/ml leupeptin. Resuspended platelets were sonicated on ice 3 times for 10 seconds each before centrifugation at 13,000×g for 5 minutes at 4° C. 100 μg lysate from each sample was incubated at 25° C. for 20 minutes with kinase buffer (150 μM Arg-Lys-Arg-Ser-Arg-Ala-Glu (SEQ ID NO: 17) peptide substrate (Bachem, King of Prussia, Pa.)), 10 mM HEPES pH 7.4, 35 mM β-glycerophosphate, 4 mM MgCl2, 5 μM Rp-8 pCPT-cAMPS, 0.5 mM EDTA, […] [γ-32P]ATPS (Sigma-Aldrich, St. Louis, Mo.)). Kinase assay reactions were terminated by spotting 50 μL of reaction mixture onto nitrocellulose. Nitrocellulose spots were washed 5 times each with 100 μL of 0.5% phosphoric acid before analysis with a scintillation counter.

“Also recorded” adds a separate entry of the source.

As to “TSP1: thrombospondin-1 prepared from human platelets”, the “ability to antagonize NO-stimulated vascular outgrowth” value in experiment [1] (CD36-null explants) was “preserved”; in experiment [1] (CD47-null explants), “lost”. Moreover, the “NO-stimulated cGMP” value is listed as “completely inhibited” in experiment [2] (CD36 null MASMC), “did not significantly inhibit” in experiment [2] (CD47 null MASMC) and “inhibited” in experiment [2] (WT MASMC). Besides, the “Rap1 activation (GTP loading)” value in the experiment on Rap1 is given as “reversed the inhibition of Rap1 activation; also recorded: did not increase Rap1 activation”. For the same substance, the “32P-incorporation into cGK-I selective peptide” value in the experiment with cGK-I (activation via sGC using DEA/NO in intact platelets) was “prevented”. In the experiment with cGK-I (stimulated by 100 μM 8Br-cGMP, TSP1 2.2 nM), the “32P incorporation into cGK-I selective peptide” value is listed as “inhibited 32P incorporation”.
